Some results are limits rather than exact numbers.

In one assay the test system is PC-3 cells. In words: MTT cell viability assay, PC-3 cells in 10% FBS medium. The assay is classed as cell-based, human. To be noted: Homo sapiens, PC-3, 48 h, RPMI 1640 with 10% FBS, means ± S.D. (n = 6). On the procedure:
PC-3 (p53−/−) human androgen-nonresponsive prostate cancer cells were purchased from the American Type Tissue Collection (Manassas, Va.). Cells were cultured in RPMI 1640 medium (Gibco, Grand Island, N.Y.) supplemented with 10% fetal bovine serum (FBS; Gibco) at 37° C. in a humidified incubator containing 5% CO2.
Effect of the test agent on cell viability was assessed by the MTT {[3-(4,5-dimethylthiazol-2-yl)-2,5-diphenyl-2H-tetrazolium bromide]} assay in 96-well, flat-bottomed plates, in which 8,000 PC-3 or DU-145 cells/well were seeded. Cells were exposed to the test agent at the indicated concentrations, in six replicates, in 10% FBS-supplemented-RPMI-1640 medium at 37° C. in 5% CO2 for 48 hr. The medium was removed and replaced by 150 μL of 0.5 mg/mL of MTT in RPMI-1640 medium, and cells were incubated in the CO2 incubator at 37° C. for 2 h. Supernatants were removed from the wells, and the reduced MTT dye was solubilized with 200 μL/well DMSO. Absorbance was determined on a plate reader at 570 nm.
All compounds were evaluated for their ability to induce apoptotic death in human androgen-independent PC-3 prostate cancer in RPMI 1640 medium containing 10% fetal bovine serum (FBS). For representative compounds tested in DU-145 and LNCaP prostate cancer cells, the IC50 values for inhibiting cell proliferation were similar in these three cell lines irrespective of differences in androgen sensitivity, PTEN mutation, the functional status of p53 and Rb, and other biomarkers.
On to `COc1cc2nc(N3CCN(C(=O)c4ccc(Cl)cc4)CC3)nc(N)c2cc1OC` [Compound 1, [4-(4-Amino-6,7-dimethoxy-quinazolin-2-yl)-piperazin-1-yl]-(4-chloro-phenyl)-methanone], for which the half-inhibitory concentration (IC50) (in general, the midpoint of a concentration-inhibition curve) was found to be 60 ± 8 µM.

Take `COc1cc2nc(N3CCN(C(=O)c4ccc(C#N)cc4)CC3)nc(N)c2cc1OC` [Compound 2, 4-[4-(4-Amino-6,7-dimethoxy-quinazolin-2-yl)-piperazine-1-carbonyl]-benzonitrile]: half-maximal inhibition (IC50) required 68 ± 6 µM.

`COc1cc2nc(N3CCN(C(=O)OCc4ccccc4)CC3)nc(N)c2cc1OC` [Compound 3, 4-(4-Amino-6,7-dimethoxy-quinazolin-2-yl)-piperazine-1-carboxylic acid benzyl ester]: the half-inhibitory concentration (IC50) worked out at 63 ± 6 µM.

`COc1cc2nc(N3CCN(C(=O)c4cccc(C#N)c4)CC3)nc(N)c2cc1OC` [Compound 4, 3-[4-(4-Amino-6,7-dimethoxy-quinazolin-2-yl)-piperazine-1-carbonyl]-benzo-nitrile] returned an IC50 of 82 ± 5 µM.

`COc1cc2nc(N3CCN(C(=O)c4ccc([N+](=O)[O-])cc4)CC3)nc(N)c2cc1OC` [Compound 5, [4-(4-Amino-6,7-dimethoxy-quinazolin-2-yl)-piperazin-1-yl]-(4-nitro-phenyl)-methanone] came in with an IC50 of 75 ± 11 µM.

The compound `COc1ccc(C(=O)N2CCN(c3nc(N)c4cc(OC)c(OC)cc4n3)CC2)cc1OC` [Compound 6, [4-(4-Amino-6,7-dimethoxy-quinazolin-2-yl)-piperazin-1-yl]-(3,4-dimethoxy-phenyl)-methanone] registered a half-maximal inhibitory concentration (IC50) of 71 ± 8 µM.

For `COc1cc2nc(N3CCN(C(=O)c4cccc5ccccc45)CC3)nc(N)c2cc1OC` [Compound 7, [4-(4-Amino-6,7-dimethoxy-quinazolin-2-yl)-piperazin-1-yl]-naphthalen-1-yl-methanone], the midpoint of inhibition, the IC50, lay at 59 ± 4 µM.

Take `COc1cc2nc(N3CCN(C(=O)c4ccc(N)cc4)CC3)nc(N)c2cc1OC` [Compound 8, [4-(4-Amino-6,7-dimethoxy-quinazolin-2-yl)-piperazin-1-yl]-(4-amino-phenyl)-methanone]: the 50% inhibitory concentration (IC50) was greater than 100 µM.

In turn, `COc1cc2nc(N3CCN(C(=O)c4ccc(C(C)(C)C)cc4)CC3)nc(N)c2cc1OC` [Compound 9, [4-(4-Amino-6,7-dimethoxy-quinazolin-2-yl)-piperazin-1-yl]-(4-tert-butyl-phenyl)-methanone] yielded a 50% inhibitory concentration (IC50) of 47 ± 6 µM.

In turn, `COc1cc2nc(N3CCN(C(=O)c4ccc(C(F)(F)F)cc4)CC3)nc(N)c2cc1OC` [Compound 10, [4-(4-Amino-6,7-dimethoxy-quinazolin-2-yl)-piperazin-1-yl]-(4-trifluoromethyl-phenyl)-methanone] came in with a half-maximal inhibitory concentration (IC50) greater than 100 µM.

For the compound `COc1cc2nc(N3CCN(S(=O)(=O)c4ccc(Cl)cc4)CC3)nc(N)c2cc1OC` [Compound 11, 2-[4-(4-Chloro-benzonesulfonyl)-piperazin-1-yl]-6,7-dimethoxy-quinazolin-4-yl-amine], the IC50 is 23 ± 3 µM.

As to `COc1cc2nc(N3CCN(S(=O)(=O)c4ccc(Br)cc4)CC3)nc(N)c2cc1OC` [Compound 12, 2-[4-(4-Bromo-benzenesulfonyl)-piperazin-1-yl]-6,7-dimethoxy-quinazolin-4-yl-amine], the IC50 worked out at 20 ± 2 µM.

In the case of `COc1cc2nc(N3CCN(S(=O)(=O)c4ccc(I)cc4)CC3)nc(N)c2cc1OC` [Compound 13, 2-[4-(4-Iodo-benzenesulfonyl)-piperazin-1-yl]-6,7-dimethoxy-quinazolin-4-yl-amine], the IC50 came out at 15 ± 2 µM.

With `COc1cc2nc(N3CCN(S(=O)(=O)c4ccc(Cl)s4)CC3)nc(N)c2cc1OC` [Compound 14, 2-[4-(5-Chloro-thiophene-2-sulfonyl)-piperazin-1-yl]-6,7-dimethoxy-quinazolin-4-ylamine], the 50% inhibitory concentration (IC50) came to 25 ± 3 µM.

`COc1cc2nc(N3CCN(S(=O)(=O)c4ccccc4[N+](=O)[O-])CC3)nc(N)c2cc1OC` [Compound 15, 6,7-Dimethoxy-2-[4-(2-nitro-benzenesulfonyl)-piperazin-1-yl]-quinazolin-4-yl-amine] registered an IC50 of 35 ± 4 µM.

As to `COc1cc2nc(N3CCN(S(=O)(=O)c4cccc([N+](=O)[O-])c4)CC3)nc(N)c2cc1OC` [Compound 16, 6,7-Dimethoxy-2-[4-(3-nitro-benzenesulfonyl)-piperazin-1-yl]-quinazolin-4-yl-amine], it took 32 ± 5 µM to reach half-maximal inhibition (IC50).

Compound `COc1cc2nc(N3CCN(S(=O)(=O)c4ccc([N+](=O)[O-])cc4)CC3)nc(N)c2cc1OC` [Compound 17, 6,7-Dimethoxy-2-[4-(4-nitro-benzenesulfonyl)-piperazin-1-yl]-quinazolin-4-yl-amine] showed an IC50 of 36 ± 3 µM.

Consider `COc1cc2nc(N3CCN(S(=O)(=O)c4ccc(C)cc4)CC3)nc(N)c2cc1OC` [Compound 18, 6,7-Dimethoxy-2-[4-(toluene-4-sulfonyl)-piperazin-1-yl]-quinazolin-4-ylamine], for which the half-inhibitory concentration (IC50) turned out to be 30 ± 2 µM.

`COc1cc2nc(N3CCN(S(=O)(=O)c4ccc(C(F)(F)F)cc4)CC3)nc(N)c2cc1OC` [Compound 19, 6,7-Dimethoxy-2-[4-(4-trifluoromethyl-benzenesulfonyl)-piperazin-1-yl]-quinazolin-4-yl-amine] came in with a concentration for half-maximal inhibition (IC50) of 27 ± 3 µM.

On to `COc1ccc(S(=O)(=O)N2CCN(c3nc(N)c4cc(OC)c(OC)cc4n3)CC2)cc1` [Compound 20, 6,7-Dimethoxy-2-[4-(4-methoxy-benzenesulfonyl)-piperazin-1-yl]-quinazolin-4-yl-amine], for which inhibition was half-maximal at 39 ± 4 µM (IC50).

Turning to `COc1cc2nc(N3CCN(S(=O)(=O)c4ccc(OC(F)(F)F)cc4)CC3)nc(N)c2cc1OC` [Compound 21, 6,7-Dimethoxy-2-[4-(4-trifluoromethoxy-benzenesulfonyl)-piperazin-1-yl]-quinazolin-4-yl-amine], the 50% inhibitory concentration (IC50) came out at 25 ± 2 µM.

As to `COc1cc2nc(N3CCN(S(=O)(=O)c4ccc(S(C)(=O)=O)cc4)CC3)nc(N)c2cc1OC` [Compound 22, 2-[4-(4-Methanesulfonyl-benzenesulfonyl)-piperazin-1-yl]-6,7-dimethoxy-quinazolin-4-ylamine], half-maximal inhibition (IC50) was put at 17 ± 3 µM.

As to `COc1cc2nc(N3CCN(S(=O)(=O)c4ccc(C(C)(C)C)cc4)CC3)nc(N)c2cc1OC` [Compound 23, 2-[4-(4-tert-Butyl-benzenesulfonyl)-piperazin-1-yl]-6,7-dimethoxy-quinazolin-4-ylamine], the 50% inhibitory concentration (IC50) is 4 to 5 µM.

For `COc1cc2nc(N3CCN(S(=O)(=O)c4cccc(C(=O)O)c4)CC3)nc(N)c2cc1OC` [Compound 24, 3-[4-(4-Amino-6,7-dimethoxy-quinazolin-2-yl)-piperazine-1-sulfonyl]-benzoic acid], half-maximal inhibition (IC50) was put at 53 ± 4 µM.

In turn, `COc1cc2nc(N3CCN(S(=O)(=O)c4cc(Cl)ccc4Cl)CC3)nc(N)c2cc1OC` [Compound 26, 2-[4-(2,5-Dichloro-benzenesulfonyl)-piperazin-1-yl]-6,7-dimethoxy-quinazolin-4-ylamine] yielded an IC50 of 60 ± 7 µM.

Turning to `COc1cc2nc(N3CCN(S(=O)(=O)c4ccc(N)cc4N)CC3)nc(N)c2cc1OC` [Compound 27, 4-[4-(4-Amino-6,7-dimethoxy-quinazolin-2-yl)-piperazine-1-sulfonyl]-benzene-1,3-diamine], the half-maximal inhibitory concentration (IC50) stood at 67 ± 5 µM.

Regarding `COc1cc2nc(N3CCN(S(=O)(=O)c4cc(C(=O)O)c(Cl)cc4F)CC3)nc(N)c2cc1OC` [Compound 28, 5-[4-(4-Amino-6,7-dimethoxy-quinazolin-2-yl)-piperazine-1-sulfonyl]-2-chloro-4-fluoro-benzoic acid], the IC50 worked out at 56 ± 4 µM.

Compound `COc1cc2nc(N3CCN(S(=O)(=O)c4cc(C(=O)O)c(Cl)cc4Cl)CC3)nc(N)c2cc1OC` [Compound 29, 5-[4-(4-Amino-6,7-dimethoxy-quinazolin-2-yl)-piperazine-1-sulfonyl]-2,4-dichloro-benzoic acid] showed an IC50 of 52 ± 6 µM.

Turning to `COc1cc2nc(N3CCN(S(=O)(=O)c4cccc5ccccc45)CC3)nc(N)c2cc1OC` [Compound 30, 6,7-Dimethoxy-2-[4-(naphthalene-1-sulfonyl)-piperazin-1-yl]-quinazolin-4-yl-amine], the IC50 turned out to be 14 ± 2 µM. This IC50 is about 3.7-fold lower than that of the compound before.

On to `COc1cc2nc(N3CCN(S(=O)(=O)c4ccc5ccccc5c4)CC3)nc(N)c2cc1OC` [Compound 31, 6,7-Dimethoxy-2-[4-(naphthalene-2-sulfonyl)-piperazin-1-yl]-quinazolin-4-yl-amino], for which the IC50 amounted to 15 ± 2 µM.

`COc1cc2nc(N3CCN(S(=O)(=O)c4cccc5c(N(C)C)cccc45)CC3)nc(N)c2cc1OC` [Compound 32, 2-[4-(5-Dimethylamino-naphthalene-1-sulfonyl)-piperazin-1-yl]-6,7-dimethoxy-quinazolin-4-ylamine] showed an IC50 of 29 ± 4 µM.

Still in this assay, the particulars now being: RPMI 1640 with 10% FBS, 48 h, means ± S.D. (n = 6).
`COc1cc2nc(N3CCN(S(=O)(=O)c4ccc(C(C)(C)C)cc4)CC3)nc(N)c2cc1OC` [Compound 23, 2-[4-(4-tert-Butyl-benzenesulfonyl)-piperazin-1-yl]-6,7-dimethoxy-quinazolin-4-ylamine] had a concentration for half-maximal inhibition (IC50) of 4.1 ± 0.7 µM.

In turn, `COc1cc2nc(N3CCN(S(=O)(=O)c4c(C(C)C)cc(C(C)C)cc4C(C)C)CC3)nc(N)c2cc1OC` [Compound 34, 6,7-Dimethoxy-2-[4-(2,4,6-triisopropyl-benzonesulfonyl)-piperazin-1-yl]-quinazolin-4-yl-amine] yielded a half-maximal inhibitory concentration (IC50) of 24 ± 3 µM. This IC50 lies about 5.9-fold higher than the previous one.

The values above are taken from patent publication US8377948B2, “Antitumor agents and methods of their use” (The Ohio State University Research Foundation, priority 2004, dated 2013).
